The record followed here is paper PMC10060354, “Discovery of a small molecule ligand of FRS2 that inhibits invasion and tumor growth” (Cellular Oncology, 2022).

The term pIC50 denotes −log10 of the IC50, conventionally taken in molar units. A lower pIC50 goes with a high IC50. The term pEC50 denotes the negative decadic logarithm of the EC50, by convention in mol/L. Low values mean a high EC50, high ones a low EC50.

pEC50, pIC50: −log10 of the molar value. Where “and” joins values, the source holds several entries; their conditions need not be identical. Identical values can stand only once.

The test system of one series is SKOV3 flank tumors. The experiment in a line: Anti-tumor activity, SKOV3 flank xenograft model. Type of series: in vivo, mice. The note with it: 200 mg/kg PO once per day. The protocol:
SKOV3 model: SKOV3 cells were cultured in McCoy´s 5A (26,600–023, ThermoFisher) media (10%FCS) until P7. Freshly isolated cells (1 × 10^6) with a viability of 98% were subcutaneously transplanted to left flank of 8-week-old female mice in PBS/Matrigel (1:1). […] Tumor diameters were determined by calliper measurements 2 × weekly, body weight (BW) was measured as parameter for tolerability 2 × weekly. For assessing significance of differences between treatments at the individual timepoints, a two-way ANOVA analysis with Turkey’s multiple comparison test was performed.

Series [1] in a line: In vivo PK of 7 (30, 100, 200 mg/kg PO), plasma and liver exposure. As to conditions: both sexes, ICR, mouse, plasma, 0.5 h after administration, read-out: plasma concentration reached. Set-up: species or system ICR mice. The protocol:
In vivo PK studies were performed by Pharmacology Discovery Services Taiwan (New Taipei City, Taiwan). 7 (30, 100, and 200 mg/kg, PO) was further administered to groups of 2 male and 2 female (23 ± 3 g) satellite ICR mice in PK study; the plasma and liver samples were harvested at 0.5 h after administration. In addition, one additional group was dosed at 30 mg/kg and the plasma samples were harvested at 1 and 2 h(s) after the treatment. The body and liver weights were recorded. The exposure levels (ng/ml or ng/g) of 7 in plasma and liver samples were then determined by Liquid Chromatograph Tandem Mass Spectrometer (LC–MS/MS), and the plasma: liver ratios were calculated.

The subject of another series is AGS. In words: CellTiter-Glo 3D cell viability. The format is cell-based. The note with it: Homo sapiens, full growth medium, 48 h. The protocol: (§1) Cell viability was determined using CellTiter-Glo® 2D or 3D cell viability assays (#G9242, #G9682, Promega). 500 cells/25 µl were seeded in flat bottom (#781,091, Greiner bio-one) or U-low adhesion (#4516, Corning) 384-well plate, 24 h prior to treatment. Increasing concentrations of compounds are deposited on cells using a HP Digital Drug Dispenser with DMSO total volume normalization. After 48 h, the CellTiter-Glo® 2D or 3D reagent was added (volume/volume) following manufacturer’s instructions. Plates were incubated at RT (room temperature) under agitation for 30 min and luminescence representing the number of viable cells was quantified with a Cytation 3 imaging reader (BioTek®). Experiments were performed independently three times with three technical replicas each.
For orientation: In ATP-based viability assays light output follows the ATP content of the culture.

In another series the test system is SKOV3. The experiment in a line: CellTiter-Glo 3D cell viability. As to conditions: Homo sapiens, SK-OV-3, full growth medium, 48 h. Type of series: cell-based. Here is the method:
as §1

The test system of series [2] is M059K. In words: CellTiter-Glo 3D cell viability. Type of series: cell-based. As to conditions: Homo sapiens, full growth medium, 48 h. The protocol:
as §1

Series [3] relates to HCT116. In words: CellTiter-Glo 3D cell viability. The format is cell-based. As to conditions: Homo sapiens, HCT-116, full growth medium, 48 h. The protocol: as §1
For a further series, the system named is RT-112. The experiment in a line: CellTiter-Glo 3D cell viability. The format is cell-based. The note with it: Homo sapiens, RT-112, 48 h. The protocol:
as §1

The next series concerns DAOY. In words: CellTiter-Glo 3D cell viability. The format is cell-based. The note with it: Homo sapiens, full growth medium, 48 h. The protocol:
as §1

In series [4] the test system is M059K. In words: SIA, collagen I invasion. Type of series: cell-based. As to conditions: Homo sapiens, 100 ng/ml bFGF. The protocol:
(§2) 1000—2500 cells/well in 100 μl were seeded in 96 well Corning® Spheroid microplate (CLS4520, Sigma-Aldrich) or in cell-repellent 96 well microplate (650,790, Greiner Bio-one). SIA and analysis was performed as described before. In brief: After spheroid formation (24 – 72 h after seeding), 70 µl medium was removed and replaced with the collagen mixture (2.5 mg/ml Pure Col Collagen I (Advanced Biomatrix)), DMEM 1x (from 10 × stock, Sigma, D2429) and 0.4% Sodium bicarbonate (Sigma, S8761)), resulting in a final collagen concentration of 1.75 mg/ml. Embedded spheroids were stimulated with bFGF (100 ng/ml if not otherwise stated), HGF (30 ng /ml) or EGF (20 ng/ml) and distance of invaded cells quantified 24 – 48 h after embedding. Compounds and BGJ398 were added in Dimethylsulfoxid (DMSO) and corresponding DMSO concentrations were used in control samples.

Series [5] deals with HCT116. In words: SIA, collagen I invasion. The format is cell-based. As to conditions: Homo sapiens, HCT-116, 100 ng/ml bFGF. Here is the method:
as §2

The conditions of series [6]: mouse, in vivo. Here is the method: […]. Animals received an initial dose of 30 mg/kg. If the animals had no significant adverse effects within 60 min after treatment, the dose for the next cohort was increased. If one or more animals died or had significant adverse effects within 60 min after treatment, the dose for the next cohort was decreased. The testing stopped when all animals survived at the upper bound (200 mg/kg), or lower bound (3 mg/kg) had been reached. Full clinical examinations and body weight change were assessed. At each dose level, animals were observed, and mortality was noted daily after compound administration for three days. […] Body weights were recorded pre-dose and at 72 h.
The next dose level was determined by the following scheme: • 30 mg/kg, if no death, 100 mg/kg, if no death, 200 mg/kg (upper bound) • 30 mg/kg, if no death, 100 mg/kg, if death, 50 mg/kg • 30 mg/kg, if death, 10 mg/kg, if death, 3 mg/kg (lower bound) • 30 mg/kg, if death, 10 mg/kg, if no death, 17 mg/kg

Another series concerns DAOY FRS2-FLAG cells. In words: SIA, bFGF-induced collagen I invasion in FRS2-FLAG overexpressing cells. The format is cell-based. As to conditions: Homo sapiens. The protocol: as §2
Lentiviral construct pLV[Exp]-hPGK > hFRS2[NM_001278357.1](ns)*/3xFLAG:P2A:Puro was ordered from VectorBuilder (Santa Clara, CA, USA). A FLAG-tag ([…]) was fused to the C-terminus of FRS2. Lentiviral particles were produced by transfection of HEK-293 T cells with transfer plasmids, psPAX2 (#12,260, Addgene) and pCMV-VSV-G plasmid (#8454, Addgene) in a ratio of 5:3:2 using polyethlenimine (24,765–2. Polysciences). Virus supernatant was harvested 30 h post transfection and filtered. […]

As to `O=[N+]([O-])c1c(Cl)cc(O)c2c1C1C=CCC1C(c1ccc(Cl)cc1)N2` (stereo not shown) [Compound 7], the “mice with less than average control tumor growth during treatment” value in the series with SKOV3 flank tumors is “six out of the seven”. Moreover, the “tumor growth (result in words)” value with SKOV3 flank tumors was “significant reduction in tumor growth between d55 and d80”. Moreover, the concentration at 0.5 h in series [1] was 10000 ng/mL and > 20 µM. In addition, the negative-log IC50 (pIC50) in the series on AGS was 5.47; in the series with SKOV3, 5.02; in the series on M059K [2], 4.82; with HCT116 [3], 5.34; in the series with RT-112 it was 4.91; in the series with DAOY, 5.18. This compound had a pIC50 in the series with DAOY FRS2-FLAG cells of 5.38. For the same compound, the values for the pEC50 in the series with M059K [4] and with HCT116 [5] were 5.48 and 6.38, respectively. In addition, the “single-dose tolerability (result in words)” value in series [6] was “No mortality and body weight loss was observed”.
